In brackets after ≈: the same amount, converted by molar mass.
How the values were obtained:
eye [1] = test: sustained release doses of Bimatoprost, reduction in intraocular pressure; type: in vivo; details: sustained release 20 to 200 ng daily, 0.2 to 2% of the daily drop dosage
Method: Commercially available solution concentrations of Bimatoprost are 0.03% by weight, often delivered once per day. Although the sustained release amount of Bimatnoprost released each day can vary, a sustained release of […] per day corresponds to about 2% of the 15 μg of Bimatoprost applied with a single drop of a 0.03% solution.

[2] = in water at 25° C.; cited from earlier work
eye [3] = details: cited from earlier work
[4] = topical drop, drug available to the eye; cited from earlier work

Question: What does the source list for CCNC(=O)CCC/C=C\C[C@@H]1[C@@H](/C=C/[C@@H](O)CCc2ccccc2)[C@H](O)C[C@@H]1O [Bimatoprost]?
Answer: reduction in intraocular pressure (eye [1]): at least some reduction in intraocular pressure; aqueous solubility [2]: 300 µg/mL (≈ 722 µM)

Question: Which results are given for CC(C)OC(=O)CCC/C=C\C[C@@H]1[C@@H](CC[C@@H](O)CCc2ccccc2)[C@H](O)C[C@@H]1O [Latanoprost]?
Answer: duration of effective IOP lowering (eye [3]; about 200 ng of drug remaining on the eye after a Xalatan drop (2.5 μg)): at least 24 hours; IOP reduction relative to that of the 50 μg/mL QD dose (eye [3]; lowest doses of 12.5 μg/mL QD or 15 μg/mL BID, eye drops): 60-75%

Question: With CC(C)(C)NC[C@H](O)COc1nsnc1N1CCOCC1 [Timolol] as the molecule, how does the bioavailability [4] read?
Answer: Its bioavailability is 30-50%.

— patent US10300014B2, “Nasolacrimal drainage system implants for drug therapy” (Mati Therapeutics Inc., priority 2006, dated 2019)
